According to the NIST ThermoML archive (doi:10.1016/j.jct.2013.03.007):
Numbers after ± are expanded uncertainties.

Conditions: 101.33 kPa, Liquid, Vibrating tube method

Row | Compound | mass density (288.2 K) | mass density (293.2 K) | mass density (298.2 K) | mass density (303.2 K) | mass density (308.2 K) | mass density (313.2 K) | mass density (318.2 K) | mass density (323.2 K) | mass density (328.2 K) | mass density (333.2 K) | mass density (338.2 K) | mass density (343.2 K) | mass density (348.2 K) | mass density (353.2 K) | mass density (358.2 K)
1 | CCCCn1cc[n+](C)c1.F[P-](F)(F)(F)(F)F [1-butyl-3-methylimidazolium hexafluorophosphate] | 1376.4 ± 0.6 kg/m3 | 1372.1 ± 0.6 kg/m3 | 1367.8 ± 0.6 kg/m3 | 1363.6 ± 0.5 kg/m3 | 1359.5 ± 0.5 kg/m3 | 1355.6 ± 0.5 kg/m3 | 1351.3 ± 0.5 kg/m3 | 1347.2 ± 0.5 kg/m3 | 1343.1 ± 0.5 kg/m3 | 1339 ± 0.5 kg/m3 | 1335 ± 0.5 kg/m3 | 1330.9 ± 0.5 kg/m3 | 1326.8 ± 0.5 kg/m3 | 1322.8 ± 0.5 kg/m3 | –
2 | CCCCn1cc[n+](C)c1.F[B-](F)(F)F [1-butyl-3-methylimidazolium tetrafluoroborate] | – | 1204.1 ± 1.3 kg/m3 | 1201 ± 1.3 kg/m3 | 1197.5 ± 1.3 kg/m3 | 1194 ± 1.3 kg/m3 | 1190.4 ± 1.3 kg/m3 | 1186.9 ± 1.2 kg/m3 | 1183.4 ± 1.2 kg/m3 | 1180 ± 1.2 kg/m3 | 1176.5 ± 1.2 kg/m3 | 1173 ± 1.2 kg/m3 | 1169.6 ± 1.2 kg/m3 | 1166.1 ± 1.2 kg/m3 | 1162.7 ± 1.2 kg/m3 | 1159.3 ± 1.2 kg/m3
